Patent publication US20090264392A1, “TREATING EOSINOPHILIC ESOPHAGITIS” (Meritage Pharma, Inc., priority 2008, published 2009)

What was measured:
[1] = tested on: eosinophilic esophogitis (EoE) patients; assay: Example 1: budesonide gel therapy in patients with EoE; type: in vivo, human; conditions: tolerance comparison; seven patients who received fluticasone and budesonide therapy
Experimental: Eighteen patients were entered into the study (mean age 41; 5 females; 13 males). 16 patients had more than 15 eos/HPF on tissue obtained from the esophagus by biopsy during endoscopy. […] Both these patients responded completely to steroids. The mean serum eosinophil count was 215. Three patients had normal endoscopies. Six patients had strictures. […] Mucosal fragility was described in one patient. […] 14 patients underwent allergy testing.
The following symptoms were recorded: dysphagia (18/18), heartburn (9/18), regurgitation (4/18), asthma (5/18), allergic skin disease (1/18), seasonal allergies (8/18), proton pump inhibitor (PPI) medication use to treat esophageal reflux disease (10/18), and history of food impaction (15/18).
Budesonide gel (3 mg/10 mL Rincinol) was formulated as provided below. Preparation involved accurate weighing and measuring of the ingredients. Trituration of the powder into the Rincinol liquid was performed using geometric dilution techniques. The product was stirred using a stir plate, packaged, and labeled.
The standard dose was 3 mg twice a day for one week, which was then decreased to once a day for six weeks. 11 of 18 patients received standard dosing. Six of 18 patients received an alternate treatment regiment of 3 mg twice a day for a variable treatment period of time of greater than one week. The longest of which was eight months. […]

[2] = tested on: patients with greater than 15 eos/HPF and solid food dysphagia (EoE); assay: Example 2: BRG therapy of eosinophilic esophagitis in adults; type: in vivo, human; conditions: 8 patients who had previously received fluticasone
Experimental: An oral gel combining budesonide with the mucosal adherent preparation Rincinol (the combination referred to as “BRG”) was compounded. Patients with abnormal Mayo dysphagia questionnaires underwent EGD with biopsies. 16 patients with greater than 15 eos/HPF and solid food dysphagia were enrolled in the study and treated with BRG. Patients were instructed to take BRG 3mg/10 cc BID. If patients noted marked improvement at one week, they were switched to once daily BRG for 6 weeks; otherwise they were continued on BID BRG for a total of 6 weeks. Dysphagia symptoms and BRG side effects over the last two weeks of treatment were assessed by personal interview. Symptoms were evaluated on a scale of dysphagia resolution: <25%, 25-49%, 50-74%, 75-99% or complete resolution. Those patients, who had previously utilized topical fluticasone for EoE, were asked to compare BRG vs topical fluticasone with respect to treatment effect and tolerance.

**Q.** How did the “patients who preferred fluticasone” value [1] turn out when `C[C@@H]1C[C@H]2[C@@H]3C[C@H](F)C4=CC(=O)C=C[C@]4(C)[C@@]3(F)[C@@H](O)C[C@]2(C)[C@@]1(O)C(=O)SCF` [fluticasone] was run?
**A.** Its value is “Two of the seven”.

**Q.** What about the “patients who favored fluticasone (tolerance)” value [2] of the same compound?
**A.** The value was 25%.
